Experimental data published in ChEMBL document CHEMBL1201861, “Genomics of Drug Sensitity in Cancer screening data, Wellcome Trust Sanger Institute”.

Legend:
Assay in all cases: cells
Calu-6 = assay type: functional, cell-based, Homo sapiens; settings: Homo sapiens, Calu-6;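 also: growth of human Calu-6 cells, read out by a cell viability assay, IC50 marking inhibition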
Description: SANGER: Inhibition of human Calu-6 cell growth in a cell viability assay.

NCI-H510A = assay type: functional, cell-based; settings: Homo sapiens;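 also: growth inhibition of NCI-H510A cells, read out with a cell viability assay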
Description: SANGER: Inhibition of human NCI-H510A cell growth in a cell viability assay.

HOS = assay type: functional, cell-based, Homo sapiens; settings: Homo sapiens, HOS;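 also: growth inhibition of human HOS cells, read out with a cell viability assay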
Description: SANGER: Inhibition of human HOS cell growth in a cell viability assay.

HCC1187 = assay type: functional, cell-based, Homo sapiens; settings: Homo sapiens, HCC1187;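 also: growth inhibition of HCC1187 cells, read out with a cell viability assay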
Description: SANGER: Inhibition of human HCC1187 cell growth in a cell viability assay.

IGROV-1 = assay type: functional, cell-based, Homo sapiens; settings: Homo sapiens, IGROV-1;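 also: reduction of IGROV-1 cell growth, read out with a viability assay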
Description: SANGER: Inhibition of human IGROV-1 cell growth in a cell viability assay.

769-P = assay type: functional, cell-based, Homo sapiens; settings: Homo sapiens, 769-P
Description: SANGER: Inhibition of human 769-P cell growth in a cell viability assay.

A673 = assay type: functional, cell-based, Homo sapiens; settings: Homo sapiens, A673;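 also: growth inhibition of human A673 cells, read out through a cell viability assay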
Description: SANGER: Inhibition of human A673 cell growth in a cell viability assay.

COLO-680N = assay type: functional, cell-based, Homo sapiens; settings: Homo sapiens, COLO-680N;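 also: cell viability assay used to measure inhibition of COLO-680N cell growth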
Description: SANGER: Inhibition of human COLO-680N cell growth in a cell viability assay.

NCI-H810 = assay type: functional, cell-based, Homo sapiens; settings: Homo sapiens, NCI-H810;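 also: IC50 reflects inhibition of cancer cell line growth, read out with a cell viability assay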
Description: SANGER: Inhibition of human NCI-H810 cell growth in a cell viability assay.

NCI-H596 = assay type: functional, cell-based, Homo sapiens; settings: Homo sapiens, NCI-H596;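 also: growth inhibition of NCI-H596 cells, read out with a cell viability assay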
Description: SANGER: Inhibition of human NCI-H596 cell growth in a cell viability assay.

MG-63 = assay type: functional, cell-based, Homo sapiens; settings: Homo sapiens, MG-63;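 also: growth inhibition of human MG-63 cells, read out with a cell viability assay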
Description: SANGER: Inhibition of human MG-63 cell growth in a cell viability assay.

MKN-7 = assay type: functional, cell-based, Homo sapiens; settings: Homo sapiens, MKN-7;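 also: growth inhibition of MKN-7 cells, read out with a cell viability assay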
Description: SANGER: Inhibition of human MKN7 cell growth in a cell viability assay.

OCUB-M = assay type: functional, cell-based, Homo sapiens; settings: Homo sapiens, OCUB-M;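 also: growth inhibition of the cancer cell line, read out through a cell viability assay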
Description: SANGER: Inhibition of human OCUB-M cell growth in a cell viability assay.

KY821 = assay type: functional, cell-based; settings: Homo sapiens;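 also: growth inhibition of human KY821 cells, read out by a cell viability assay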
Description: SANGER: Inhibition of human KY821 cell growth in a cell viability assay.

NCI-H2452 = assay type: functional, cell-based, Homo sapiens; settings: Homo sapiens, NCI-H2452;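 also: growth inhibition of NCI-H2452 cells, read out with a cell viability assay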
Description: SANGER: Inhibition of human NCI-H2452 cell growth in a cell viability assay.

ASPC1 = assay type: functional, cell-based, Homo sapiens; settings: Homo sapiens, ASPC1;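 also: growth inhibition of AsPC-1 cells, read out with a cell viability assay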
Description: SANGER: Inhibition of human AsPC-1 cell growth in a cell viability assay.

A498 = assay type: functional, cell-based, Homo sapiens; settings: Homo sapiens, A498;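 also: growth inhibition of human A498 cells, read out with a cell viability assay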
Description: SANGER: Inhibition of human A498 cell growth in a cell viability assay.

A2058 = assay type: functional, cell-based; settings: Homo sapiens;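 also: reduction of A2058 cell growth, read out with a viability assay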
Description: SANGER: Inhibition of human A2058 cell growth in a cell viability assay.

GCIY = assay type: functional, cell-based, Homo sapiens; settings: Homo sapiens, GCIY;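 also: growth inhibition of the human GCIY cell line, read out by a cell viability assay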
Description: SANGER: Inhibition of human GCIY cell growth in a cell viability assay.

ML-2 = assay type: functional, cell-based; settings: Homo sapiens;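 also: growth inhibition of ML-2 cells, measured with a cell viability readout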
Description: SANGER: Inhibition of human ML-2 cell growth in a cell viability assay.

HGC-27 = assay type: functional, cell-based, Homo sapiens; settings: Homo sapiens, HGC-27;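 also: growth inhibition of human HGC-27 cells, read out in a cell viability assay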
Description: SANGER: Inhibition of human HGC-27 cell growth in a cell viability assay.

SW948 = assay type: functional, cell-based, Homo sapiens; settings: Homo sapiens, SW948;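 also: growth inhibition of SW948 cells, read out with a cell viability assay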
Description: SANGER: Inhibition of human SW948 cell growth in a cell viability assay.

YAPC = assay type: functional, cell-based, Homo sapiens; settings: Homo sapiens, YAPC;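 also: growth inhibition of YAPC cells, measured with a cell viability assay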
Description: SANGER: Inhibition of human YAPC cell growth in a cell viability assay.

HCE-4 = assay type: functional, cell-based, Homo sapiens; settings: Homo sapiens, HCE-4;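 also: cell viability assay measuring inhibition of growth in the human HCE-4 cell line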
Description: SANGER: Inhibition of human HCE-4 cell growth in a cell viability assay.

NCI-H2405 = assay type: functional, cell-based, Homo sapiens; settings: Homo sapiens, NCI-H2405;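 also: growth inhibition of the human cell line, read out with a cell viability assay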
Description: SANGER: Inhibition of human NCI-H2405 cell growth in a cell viability assay.

HSC-2 = assay type: functional, cell-based, Homo sapiens; settings: Homo sapiens, HSC-2;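 also: growth inhibition of human HSC-2 cells, read out by a cell viability assay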
Description: SANGER: Inhibition of human HSC-2 cell growth in a cell viability assay.

LB373-MEL-D = assay type: functional, cell-based, Homo sapiens; settings: Homo sapiens, LB373-MEL-D;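 also: growth inhibition of the cell line, read out in a cell viability assay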
Description: SANGER: Inhibition of human LB373-MEL-D cell growth in a cell viability assay.

AU565 = assay type: functional, cell-based, Homo sapiens; settings: Homo sapiens, AU565;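 also: cell viability assay measuring growth inhibition of human AU565 cells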
Description: SANGER: Inhibition of human AU565 cell growth in a cell viability assay.

NCI-H1648 = assay type: functional, cell-based, Homo sapiens; settings: Homo sapiens, NCI-H1648;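 also: cell viability assay measuring inhibition of NCI-H1648 cell growth, from the Sanger screening data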
Description: SANGER: Inhibition of human NCI-H1648 cell growth in a cell viability assay.

DoTc2-4510 = assay type: functional, cell-based, Homo sapiens; settings: Homo sapiens, DoTc2-4510
NCI-H2170 = assay type: functional, cell-based, Homo sapiens; settings: Homo sapiens, NCI-H2170;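 also: cell viability assay measuring growth inhibition of human NCI-H2170 cancer cells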
Description: SANGER: Inhibition of human NCI-H2170 cell growth in a cell viability assay.

OAW-42 = assay type: functional, cell-based, Homo sapiens; settings: Homo sapiens, OAW-42;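 also: growth inhibition of OAW-42 cells, read out with a cell viability assay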
Description: SANGER: Inhibition of human OAW-42 cell growth in a cell viability assay.

PFSK-1 = assay type: functional, cell-based, Homo sapiens; settings: Homo sapiens, PFSK-1;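 also: cell viability assay measuring how strongly compounds suppress growth of human PFSK-1 cells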
Description: SANGER: Inhibition of human PFSK-1 cell growth in a cell viability assay.

LU-134-A = assay type: functional, cell-based; settings: Homo sapiens
Description: SANGER: Inhibition of human LU-134-A cell growth in a cell viability assay.

J-RT3-T3-5 = assay type: functional, cell-based; settings: Homo sapiens;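 also: cell viability assay measuring growth inhibition of human J-RT3-T3-5 cells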
Description: SANGER: Inhibition of human J-RT3-T3-5 cell growth in a cell viability assay.

LU-99A = assay type: functional, cell-based, Homo sapiens; settings: Homo sapiens, LU-99A;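 also: growth inhibition of LU-99A cells, read out with a cell viability assay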
Description: SANGER: Inhibition of human LU-99A cell growth in a cell viability assay.

NCI-H2052 = assay type: functional, cell-based, Homo sapiens; settings: Homo sapiens, NCI-H2052;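 also: growth inhibition of NCI-H2052 cells, read out with a cell viability assay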
Description: SANGER: Inhibition of human NCI-H2052 cell growth in a cell viability assay.

NCI-H1770 = assay type: functional, cell-based; settings: Homo sapiens;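 also: growth inhibition of NCI-H1770 cells determined with a viability readout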
Description: SANGER: Inhibition of human NCI-H1770 cell growth in a cell viability assay.

A704 = assay type: functional, cell-based, Homo sapiens; settings: Homo sapiens, A704;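 also: growth inhibition of human A704 cells, read out with a cell viability assay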
Description: SANGER: Inhibition of human A704 cell growth in a cell viability assay.

CAL-12T = assay type: functional, cell-based, Homo sapiens; settings: Homo sapiens, CAL-12T;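 also: growth inhibition of human CAL-12T cells, read out with a cell viability assay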
Description: SANGER: Inhibition of human CAL-12T cell growth in a cell viability assay.

ES1 = assay type: functional, cell-based, Homo sapiens; settings: Homo sapiens, ES1;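 also: growth inhibition of ES1 cells, read out with a cell viability assay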
Description: SANGER: Inhibition of human ES1 cell growth in a cell viability assay.

T98G = assay type: functional, cell-based, Homo sapiens; settings: Homo sapiens, T98G;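 also: growth inhibition of T98G cells, read out by a cell viability assay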
Description: SANGER: Inhibition of human T98G cell growth in a cell viability assay.

A253 cell line = assay type: functional, cell-based, Homo sapiens; settings: Homo sapiens, A253;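 also: growth inhibition of A253 cells, read out with a cell viability assay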
Description: SANGER: Inhibition of human A253 cell growth in a cell viability assay.

ES8 = assay type: functional, cell-based, Homo sapiens; settings: Homo sapiens, ES8;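 also: growth inhibition of human ES8 cells, read out with a cell viability assay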
Description: SANGER: Inhibition of human ES8 cell growth in a cell viability assay.

NKM-1 = assay type: functional, cell-based; settings: Homo sapiens;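 also: growth inhibition of NKM-1 cells, read out with a cell viability assay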
Description: SANGER: Inhibition of human NKM-1 cell growth in a cell viability assay.

G-401 = assay type: functional, cell-based, Homo sapiens; settings: Homo sapiens, G-401
Description: SANGER: Inhibition of human G-401 cell growth in a cell viability assay.

RT-112 = assay type: functional, cell-based, Homo sapiens; settings: Homo sapiens, RT-112
Description: SANGER: Inhibition of human RT-112 cell growth in a cell viability assay.

NCI-H441 = assay type: functional, cell-based; settings: Homo sapiens;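 also: growth inhibition of NCI-H441 cells, read out with a cell viability assay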
Description: SANGER: Inhibition of human NCI-H441 cell growth in a cell viability assay.

647-V = assay type: functional, cell-based, Homo sapiens; settings: Homo sapiens, 647-V;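 also: growth inhibition of 647-V cells, read out with a cell viability assay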
Description: SANGER: Inhibition of human 647-V cell growth in a cell viability assay.

YKG-1 = assay type: functional, cell-based, Homo sapiens; settings: Homo sapiens, YKG-1;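 also: cell growth inhibition, read out with a viability assay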
Description: SANGER: Inhibition of human YKG-1 cell growth in a cell viability assay.

RS4-11 = assay type: functional, cell-based; settings: Homo sapiens;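 also: growth inhibition of RS4-11 cells, read out by a cell viability assay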
Description: SANGER: Inhibition of human RS4-11 cell growth in a cell viability assay.

C[C@]1(O)C[C@@H](c2nc(-c3ccc4ccc(-c5ccccc5)nc4c3)c3c(N)nccn32)C1 [LINSITINIB]
IC50 (Calu-6): > 2.56 µM | IC50 (NCI-H510A): > 2.56 µM | IC50 (HOS): > 2.56 µM | IC50 (HCC1187): > 2.56 µM | IC50 (IGROV-1): 1.15 µM | IC50 (769-P): > 2.56 µM | IC50 (A673): > 2.56 µM | IC50 (COLO-680N): > 2.56 µM | IC50 (NCI-H810): > 2.56 µM | IC50 (NCI-H596): > 2.56 µM | IC50 (MG-63): > 2.56 µM | IC50 (MKN-7): > 2.56 µM | IC50 (OCUB-M): > 2.56 µM | IC50 (KY821): > 2.56 µM | IC50 (NCI-H2452): > 2.56 µM | IC50 (ASPC1): > 2.56 µM | IC50 (A498): > 2.56 µM | IC50 (A2058): > 2.56 µM | IC50 (GCIY): > 2.56 µM | IC50 (ML-2): 0.159 µM | IC50 (HGC-27): > 2.56 µM | IC50 (SW948): > 2.56 µM | IC50 (YAPC): > 2.56 µM | IC50 (HCE-4): > 2.56 µM | IC50 (NCI-H2405): > 2.56 µM | IC50 (HSC-2): > 2.56 µM | IC50 (LB373-MEL-D): > 2.56 µM | IC50 (AU565): > 2.56 µM | IC50 (NCI-H1648): > 2.56 µM | IC50 (DoTc2-4510): > 2.56 µM | IC50 (NCI-H2170): > 2.56 µM | IC50 (OAW-42): > 2.56 µM | IC50 (PFSK-1): > 2.56 µM | IC50 (LU-134-A): 2.28 µM | IC50 (J-RT3-T3-5): > 2.56 µM | IC50 (LU-99A): > 2.56 µM | IC50 (NCI-H2052): > 2.56 µM | IC50 (NCI-H1770): 1.51 µM | IC50 (A704): > 2.56 µM | IC50 (CAL-12T): > 2.56 µM | IC50 (ES1): 0.107 µM | IC50 (T98G): > 2.56 µM | IC50 (A253 cell line): > 2.56 µM | IC50 (ES8): > 2.56 µM | IC50 (NKM-1): > 2.56 µM | IC50 (G-401): 0.182 µM | IC50 (RT-112): > 2.56 µM | IC50 (NCI-H441): > 2.56 µM | IC50 (647-V): > 2.56 µM | IC50 (YKG-1): > 2.56 µM | IC50 (RS4-11): 0.338 µM

C=CCc1cccc(/C=N/NC(=O)CN2CCN(Cc3ccccc3)CC2)c1O [PAC-1]
IC50 (Calu-6): > 2.56 µM | IC50 (NCI-H510A): > 2.56 µM | IC50 (HOS): > 2.56 µM | IC50 (HCC1187): > 2.56 µM | IC50 (IGROV-1): 1.34 µM | IC50 (769-P): > 2.56 µM | IC50 (A673): > 2.56 µM | IC50 (COLO-680N): > 2.56 µM | IC50 (NCI-H810): > 2.56 µM | IC50 (NCI-H596): > 2.56 µM | IC50 (MG-63): > 2.56 µM | IC50 (MKN-7): > 2.56 µM | IC50 (OCUB-M): > 2.56 µM | IC50 (KY821): > 2.56 µM | IC50 (NCI-H2452): > 2.56 µM | IC50 (ASPC1): > 2.56 µM | IC50 (A498): > 2.56 µM | IC50 (A2058): > 2.56 µM | IC50 (GCIY): > 2.56 µM | IC50 (ML-2): > 2.56 µM | IC50 (HGC-27): > 2.56 µM | IC50 (SW948): > 2.56 µM | IC50 (YAPC): > 2.56 µM | IC50 (HCE-4): > 2.56 µM | IC50 (NCI-H2405): > 2.56 µM | IC50 (HSC-2): > 2.56 µM | IC50 (LB373-MEL-D): > 2.56 µM | IC50 (AU565): > 2.56 µM | IC50 (NCI-H1648): > 2.56 µM | IC50 (DoTc2-4510): > 2.56 µM | IC50 (NCI-H2170): > 2.56 µM | IC50 (OAW-42): > 2.56 µM | IC50 (PFSK-1): > 2.56 µM | IC50 (LU-134-A): > 2.56 µM | IC50 (J-RT3-T3-5): 1.2 µM | IC50 (LU-99A): > 2.56 µM | IC50 (NCI-H2052): > 2.56 µM | IC50 (NCI-H1770): > 2.56 µM | IC50 (A704): > 2.56 µM | IC50 (CAL-12T): > 2.56 µM | IC50 (ES1): > 2.56 µM | IC50 (T98G): > 2.56 µM | IC50 (A253 cell line): > 2.56 µM | IC50 (ES8): > 2.56 µM | IC50 (NKM-1): > 2.56 µM | IC50 (G-401): 1.01 µM | IC50 (RT-112): > 2.56 µM | IC50 (NCI-H441): > 2.56 µM | IC50 (647-V): > 2.56 µM | IC50 (YKG-1): > 2.56 µM | IC50 (RS4-11): > 2.56 µM
